Literature values in publication PMC11990879, “Anticandidal Activity of Lipopeptides Containing an LL-37-Derived Peptide Fragment KR12” (Molecules, 2025).
Like-named read-outs stand apart in the source and are kept apart here. Marks after values point to notes of the source that are not given here. Where a SMILES comes first, the peptide text is derived from it. The star is where a group is joined. Hydrocinnamoyl = O=C(CCc1ccccc1)*; Octanoyl = CCCCCCCC(=O)*; X3 = O=C(/C=C/c1ccccc1)*; Hexanoyl = CCCCCC(=O)*; X4 = CCCCC(CC)C(=O)*; Butyryl = CCCC(=O)*

Tested on: human red blood cells
Conditions: cited from earlier work
Source text: Table 2 Minimum inhibitory concentrations (MIC) and minimum fungicidal concentrations (MFC) determined for peptides and reference antifungals [g/L]. The highest antimicrobial activity is marked in green, medium values in yellow, while the weakest antifungal activity is marked in red. Minimum hemolytic concentration (MHC5%—causing hemolysis of 5% of human red blood cells) determined in previous stu | column: MHC5%

[1] = human red blood cells, determined in previous studies, ref [13],[14]

| SMILES | MHC5% (minimum hemolytic concentration causing hemolysis of 5% of human red blood cells) [1] | MHC5% (minimum hemolytic concentration causing hemolysis of 5% of human red blood cells) |
| --- | --- | --- |
| CCCC(=O)N[C@@H](CCCCN)C(=O)N[C@@H](CCCNC(=N)N)C(=O)N[C@H](C(=O)N[C@H](C(=O)N[C@@H](CCC(N)=O)C(=O)N[C@@H](CCCNC(=N)N)C(=O)N[C@H](C(=O)N[C@@H](CCCCN)C(=O)N[C@@H](CC(=O)O)C(=O)N[C@@H](Cc1ccccc1)C(=O)N[C@@H](CC(C)C)C(=O)N[C@@H](CCCNC(=N)N)C(N)=O)[C@@H](C)CC)C(C)C)[C@@H](C)CC [II, C4-KR12-NH2] (Butyryl-KRIVQRIKDFLR-NH2) | >256 * g/L |  |
| CCCCCC(=O)N[C@@H](CCCCN)C(=O)N[C@@H](CCCNC(=N)N)C(=O)N[C@H](C(=O)N[C@H](C(=O)N[C@@H](CCC(N)=O)C(=O)N[C@@H](CCCNC(=N)N)C(=O)N[C@H](C(=O)N[C@@H](CCCCN)C(=O)N[C@@H](CC(=O)O)C(=O)N[C@@H](Cc1ccccc1)C(=O)N[C@@H](CC(C)C)C(=O)N[C@@H](CCCNC(=N)N)C(N)=O)[C@@H](C)CC)C(C)C)[C@@H](C)CC [III, C6-KR12-NH2] (Hexanoyl-KRIVQRIKDFLR-NH2) | 256 g/L |  |
| CC[C@H](C)[C@H](NC(=O)[C@H](CCCNC(=N)N)NC(=O)[C@H](CCC(N)=O)NC(=O)[C@@H](NC(=O)[C@@H](NC(=O)[C@H](CCCNC(=N)N)NC(=O)[C@H](CCCCN)NC(=O)/C=C/c1ccccc1)[C@@H](C)CC)C(C)C)C(=O)N[C@@H](CCCCN)C(=O)N[C@@H](CC(=O)O)C(=O)N[C@@H](Cc1ccccc1)C(=O)N[C@@H](CC(C)C)C(=O)N[C@@H](CCCNC(=N)N)C(N)=O [IX, trans-cinnamic acid-KR12-NH2] (X3-KRIVQRIKDFLR-NH2) |  | 128 g/L |
| CCCCCCCC(=O)NCCCC[C@H](N)C(=O)N[C@@H](CCCNC(=N)N)C(=O)N[C@H](C(=O)N[C@H](C(=O)N[C@@H](CCC(N)=O)C(=O)N[C@@H](CCCNC(=N)N)C(=O)N[C@H](C(=O)N[C@@H](CCCCN)C(=O)N[C@@H](CC(=O)O)C(=O)N[C@@H](Cc1ccccc1)C(=O)N[C@@H](CC(C)C)C(=O)N[C@@H](CCCNC(=N)N)C(N)=O)[C@@H](C)CC)C(C)C)[C@@H](C)CC [XI, C8^ε-KR12-NH2] (H-K(Octanoyl)RIVQRIKDFLR-NH2) |  | >256 * g/L |
| CCCCCCCC(=O)N[C@@H](CCCCN)C(=O)N[C@@H](CCCCN)C(=O)N[C@@H](CCCNC(=N)N)C(=O)N[C@H](C(=O)N[C@H](C(=O)N[C@@H](CCC(N)=O)C(=O)N[C@@H](CCCNC(=N)N)C(=O)N[C@H](C(=O)N[C@@H](CCCCN)C(=O)N[C@@H](CC(=O)O)C(=O)N[C@@H](Cc1ccccc1)C(=O)N[C@@H](CC(C)C)C(=O)N[C@@H](CCCNC(=N)N)C(N)=O)[C@@H](C)CC)C(C)C)[C@@H](C)CC [XII, C8^α-Lys-KR12-NH2] (Octanoyl-KKRIVQRIKDFLR-NH2) |  | 256 g/L |
| CCCCCCCC(=O)NCCCC[C@H](N)C(=O)N[C@@H](CCCCN)C(=O)N[C@@H](CCCNC(=N)N)C(=O)N[C@H](C(=O)N[C@H](C(=O)N[C@@H](CCC(N)=O)C(=O)N[C@@H](CCCNC(=N)N)C(=O)N[C@H](C(=O)N[C@@H](CCCCN)C(=O)N[C@@H](CC(=O)O)C(=O)N[C@@H](Cc1ccccc1)C(=O)N[C@@H](CC(C)C)C(=O)N[C@@H](CCCNC(=N)N)C(N)=O)[C@@H](C)CC)C(C)C)[C@@H](C)CC [XIII, C8^ε-Lys-KR12-NH2] (H-K(Octanoyl)KRIVQRIKDFLR-NH2) | 256 g/L |  |
| CCCCCCCC(=O)NCCCC[C@H](NC(=O)[C@H](CCCNC(=N)N)NC(=O)[C@H](CC(C)C)NC(=O)[C@H](Cc1ccccc1)NC(=O)[C@H](CC(=O)O)NC(=O)[C@H](CCCCN)NC(=O)[C@@H](NC(=O)[C@H](CCCNC(=N)N)NC(=O)[C@H](CCC(N)=O)NC(=O)[C@@H](NC(=O)[C@@H](NC(=O)[C@H](CCCNC(=N)N)NC(=O)[C@@H](N)CCCCN)[C@@H](C)CC)C(C)C)[C@@H](C)CC)C(N)=O [XIV, KR12-Lys^ε(C8)-NH2] (H-KRIVQRIKDFLRK(Octanoyl)-NH2) | >256 * g/L |  |
| CCCCCCCC(=O)NCCCC[C@H](NC(=O)[C@H](CC(C)C)NC(=O)[C@H](Cc1ccccc1)NC(=O)[C@H](CC(=O)O)NC(=O)[C@H](CCCCN)NC(=O)[C@@H](NC(=O)[C@H](CCCNC(=N)N)NC(=O)[C@H](CCC(N)=O)NC(=O)[C@@H](NC(=O)[C@@H](NC(=O)[C@H](CCCNC(=N)N)NC(=O)[C@@H](N)CCCCN)[C@@H](C)CC)C(C)C)[C@@H](C)CC)C(N)=O [XV, [Lys^ε(C8)]^12KR12-NH2] (H-KRIVQRIKDFLK(Octanoyl)-NH2) | >256 * g/L |  |
| CCCCCCCC(=O)NCCCC[C@H](NC(=O)[C@H](CCCNC(=N)N)NC(=O)[C@@H](NC(=O)[C@@H](NC(=O)[C@H](CCC(N)=O)NC(=O)[C@H](CCCNC(=N)N)NC(=O)[C@@H](NC(=O)[C@H](CCCCN)NC(=O)[C@H](CC(=O)O)NC(=O)[C@H](Cc1ccccc1)NC(=O)[C@H](CC(C)C)NC(=O)[C@@H](N)CCCNC(=N)N)[C@@H](C)CC)C(C)C)[C@@H](C)CC)C(N)=O [XVII, Retro-KR12-C8^ε-NH2] (H-RLFDKIRQVIRK(Octanoyl)-NH2) | 256 g/L |  |
| CCCCCCCC(=O)N[C@@H](CCCNC(=N)N)C(=O)N[C@@H](CC(C)C)C(=O)N[C@@H](Cc1ccccc1)C(=O)N[C@@H](CC(=O)O)C(=O)N[C@@H](CCCCN)C(=O)N[C@H](C(=O)N[C@@H](CCCNC(=N)N)C(=O)N[C@@H](CCC(N)=O)C(=O)N[C@H](C(=O)N[C@H](C(=O)N[C@@H](CCCNC(=N)N)C(=O)N[C@@H](CCCCN)C(N)=O)[C@@H](C)CC)C(C)C)[C@@H](C)CC [XVIII, C8^α-retro-KR12-NH2] (Octanoyl-RLFDKIRQVIRK-NH2) | >256 * g/L |  |
| CCCCC(CC)C(=O)N[C@@H](CCCCN)C(=O)N[C@@H](CCCNC(=N)N)C(=O)N[C@H](C(=O)N[C@H](C(=O)N[C@@H](CCC(N)=O)C(=O)N[C@@H](CCCNC(=N)N)C(=O)N[C@H](C(=O)N[C@@H](CCCCN)C(=O)N[C@@H](CC(=O)O)C(=O)N[C@@H](Cc1ccccc1)C(=O)N[C@@H](CC(C)C)C(=O)N[C@@H](CCCNC(=N)N)C(N)=O)[C@@H](C)CC)C(C)C)[C@@H](C)CC (stereo partly drawn) [XX, 2-Ethylhexanoic acid-KR12-NH2] (X4-KRIVQRIKDFLR-NH2) |  | 256 g/L |
| CC[C@H](C)[C@H](NC(=O)[C@H](CCCNC(=N)N)NC(=O)[C@H](CCC(N)=O)NC(=O)[C@@H](NC(=O)[C@@H](NC(=O)[C@H](CCCNC(=N)N)NC(=O)[C@H](CCCCN)NC(=O)CCc1ccccc1)[C@@H](C)CC)C(C)C)C(=O)N[C@@H](CCCCN)C(=O)N[C@@H](CC(=O)O)C(=O)N[C@@H](Cc1ccccc1)C(=O)N[C@@H](CC(C)C)C(=O)N[C@@H](CCCNC(=N)N)C(N)=O [XXII, 3-Phenylpropionic acid-KR12-NH2] (Hydrocinnamoyl-KRIVQRIKDFLR-NH2) | 256 g/L |  |
